Data taken from patent publication US7745437B2, “Compounds and compositions as protein kinase inhibitors” (IRM LLC, priority 2004, dated 2010).

Tests used:
FLT3 = target: T1, FLT3 (Homo sapiens, UniProt P36888, cells depend on it, form not given); test: FLT3 (Cellular Assay), Ba/F3-FLT3-ITD cell proliferation; format: cell-based; details: read-out: IC50 for FLT3
T1 sequence (P36888 1-993): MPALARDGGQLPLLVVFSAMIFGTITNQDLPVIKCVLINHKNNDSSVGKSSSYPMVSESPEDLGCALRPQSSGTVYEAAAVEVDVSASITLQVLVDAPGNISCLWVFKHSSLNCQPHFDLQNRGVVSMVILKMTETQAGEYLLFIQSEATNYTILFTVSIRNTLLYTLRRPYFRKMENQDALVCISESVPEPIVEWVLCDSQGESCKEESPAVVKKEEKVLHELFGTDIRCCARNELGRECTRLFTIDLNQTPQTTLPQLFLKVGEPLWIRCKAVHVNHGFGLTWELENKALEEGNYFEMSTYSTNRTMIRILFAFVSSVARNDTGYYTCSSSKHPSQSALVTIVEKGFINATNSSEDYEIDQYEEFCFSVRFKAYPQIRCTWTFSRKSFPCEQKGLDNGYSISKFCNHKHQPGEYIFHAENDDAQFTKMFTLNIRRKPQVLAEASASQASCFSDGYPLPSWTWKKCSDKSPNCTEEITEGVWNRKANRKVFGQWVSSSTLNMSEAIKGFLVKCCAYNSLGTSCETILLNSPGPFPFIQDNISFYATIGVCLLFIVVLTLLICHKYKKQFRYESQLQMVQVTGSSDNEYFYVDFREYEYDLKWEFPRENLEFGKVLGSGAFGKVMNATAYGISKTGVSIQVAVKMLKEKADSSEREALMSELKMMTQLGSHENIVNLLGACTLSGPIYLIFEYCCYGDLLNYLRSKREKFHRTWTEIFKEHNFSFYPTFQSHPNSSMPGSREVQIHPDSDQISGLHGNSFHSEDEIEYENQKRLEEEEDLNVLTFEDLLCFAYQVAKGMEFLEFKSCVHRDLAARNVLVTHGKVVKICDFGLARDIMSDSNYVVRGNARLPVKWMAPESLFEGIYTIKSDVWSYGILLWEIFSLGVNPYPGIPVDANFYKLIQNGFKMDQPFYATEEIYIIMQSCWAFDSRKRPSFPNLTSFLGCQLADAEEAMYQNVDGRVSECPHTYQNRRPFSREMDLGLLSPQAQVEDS

FGFR3 [1] = target: T2, FGFR3 (Homo sapiens, UniProt P22607); test: FGFR3 (Enzymatic Assay), HTRF; format: biochemical; set-up: purchased Upstate; details: purified FGFR3, 3 μM ATP; read-out: IC50 for the FGFR3 enzyme assay
Method: Kinase activity assay with purified FGFR3 (Upstate) is carried out in a final volume of 10 μL containing 0.25 μg/mL of enzyme in kinase buffer (30 mM Tris-HCl pH7.5, 15 mM MgCl2, 4.5 mM MnCl2, 15 μM Na3VO4 and 50 μg/mL BSA), and substrates (5 μg/mL biotin-poly-EY (Glu, Tyr) (CIS-US, Inc.) and 3 μM ATP). Two solutions are made: the first solution of 5 μl contains the FGFR3 enzyme in kinase buffer was first dispensed into 384-format ProxiPlate® (Perkin-Elmer) followed by adding 50 nL of compounds dissolved in DMSO, then 5 μl of second solution contains the substrate (poly-EY) and ATP in kinase buffer was added to each wells. The reactions are incubated at room temperature for one hour, stopped by adding 10 μL of HTRF detection mixture, which contains 30 mM Tris-HCl pH7.5, 0.5 M KF, 50 mM ETDA, 0.2 mg/mL BSA, 15 μg/mL streptavidin-XL665 (CIS-US, Inc.) and 150 ng/mL cryptate conjugated anti-phosphotyrosine antibody (CIS-US, Inc.). After one hour of room temperature incubation to allow for streptavidin-biotin interaction, time resolved florescent signals are read on Analyst GT (Molecular Devices Corp.). IC50 values are calculated by […] analysis of the percentage inhibition of each compound at 12 concentrations (1:3 dilution from 50 μM to 0.28 nM).
Target sequence in this assay (P22607 23-806): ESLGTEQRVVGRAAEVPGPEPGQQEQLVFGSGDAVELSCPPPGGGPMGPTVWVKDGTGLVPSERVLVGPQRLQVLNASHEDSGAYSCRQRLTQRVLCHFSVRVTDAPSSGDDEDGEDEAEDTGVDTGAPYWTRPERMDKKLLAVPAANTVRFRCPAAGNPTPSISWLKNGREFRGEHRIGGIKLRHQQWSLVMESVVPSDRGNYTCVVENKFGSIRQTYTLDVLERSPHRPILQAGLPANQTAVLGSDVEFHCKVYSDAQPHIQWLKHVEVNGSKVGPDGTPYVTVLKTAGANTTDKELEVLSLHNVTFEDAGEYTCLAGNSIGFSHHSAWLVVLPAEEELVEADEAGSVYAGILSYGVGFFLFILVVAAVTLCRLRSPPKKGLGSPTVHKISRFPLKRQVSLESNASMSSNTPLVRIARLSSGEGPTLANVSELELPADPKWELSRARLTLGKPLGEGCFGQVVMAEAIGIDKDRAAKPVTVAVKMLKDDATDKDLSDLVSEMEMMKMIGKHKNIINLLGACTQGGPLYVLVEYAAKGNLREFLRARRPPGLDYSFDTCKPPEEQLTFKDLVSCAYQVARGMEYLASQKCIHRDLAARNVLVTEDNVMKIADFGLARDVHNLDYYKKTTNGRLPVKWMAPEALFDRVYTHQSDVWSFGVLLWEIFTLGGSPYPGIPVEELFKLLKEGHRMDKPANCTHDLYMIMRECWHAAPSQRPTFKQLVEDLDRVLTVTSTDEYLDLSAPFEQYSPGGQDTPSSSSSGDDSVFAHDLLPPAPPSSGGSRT

PDGFRβ = target: T3, PDGFRβ (Homo sapiens, UniProt P09619); test: PDGFRβ (Cellular Assay), Ba/F3-Tel-PDGFRβ cell proliferation; format: cell-based; details: Ba/F3-Tel-PDGFRβ cells; read-out: IC50 for PDGFRβ
T3 construct: fused on or other part: P41212 (Transcription factor ETV6)
T3 sequence (P09619 600-962 limits assumed, change not shown): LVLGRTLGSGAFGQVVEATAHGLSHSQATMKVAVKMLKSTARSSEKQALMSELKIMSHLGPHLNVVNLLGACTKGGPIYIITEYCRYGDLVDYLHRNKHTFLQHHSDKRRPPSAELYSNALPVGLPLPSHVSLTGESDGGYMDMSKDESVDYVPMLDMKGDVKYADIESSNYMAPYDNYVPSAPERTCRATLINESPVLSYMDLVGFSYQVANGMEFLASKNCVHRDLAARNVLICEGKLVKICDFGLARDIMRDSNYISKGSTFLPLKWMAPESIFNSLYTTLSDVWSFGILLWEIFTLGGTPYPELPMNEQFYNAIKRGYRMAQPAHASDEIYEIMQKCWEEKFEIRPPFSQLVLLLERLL

FGFR3 [2] = target: T2, FGFR3; test: FGFR3 (Cellular Assay), Ba/F3-TEL-FGFR3 cell proliferation; format: cell-based; set-up: fused on or other part: P41212 (Transcription factor ETV6); details: Ba/F3-TEL-FGFR3 cells, 48 hours; read-out: IC50 for the FGFR3 cellular assay
Method: Compounds of the invention are tested for their ability to inhibit transformed Ba/F3-TEL-FGFR3 cells proliferation, which is depended on FGFR3 cellular kinase activity. Ba/F3-TEL-FGFR3 are cultured up to 800,000 cells/mL in suspension, with RPMI 1640 supplemented with 10% fetal bovine serum as the culture medium. Cells are dispensed into 384-well format plate at 5000 cell/well in 50 μL culture medium. Compounds of the invention are dissolved and diluted in dimethylsufoxide (DMSO). Twelve points 1:3 serial dilutions are made into DMSO to create concentrations gradient ranging typically from 10 mM to 0.05 μM. Cells are added with 50 nL of diluted compounds and incubated for 48 hours in cell culture incubator. AlamarBlue® (TREK Diagnostic Systems), which can be used to monitor the reducing environment created by proliferating cells, are added to cells at final concentration of 10%. After additional four hours of incubation in a 37° C. cell culture incubator, fluorescence signals from reduced AlamarBlue® (Excitation at 530 nm, Emission at 580 nm) are quantified on Analyst GT (Molecular Devices Corp.). IC50 values are calculated by linear regression analysis of the percentage inhibition of each compound at 12 concentrations.
Target sequence in this assay (P22607 472-761 limits assumed, stated change not applied): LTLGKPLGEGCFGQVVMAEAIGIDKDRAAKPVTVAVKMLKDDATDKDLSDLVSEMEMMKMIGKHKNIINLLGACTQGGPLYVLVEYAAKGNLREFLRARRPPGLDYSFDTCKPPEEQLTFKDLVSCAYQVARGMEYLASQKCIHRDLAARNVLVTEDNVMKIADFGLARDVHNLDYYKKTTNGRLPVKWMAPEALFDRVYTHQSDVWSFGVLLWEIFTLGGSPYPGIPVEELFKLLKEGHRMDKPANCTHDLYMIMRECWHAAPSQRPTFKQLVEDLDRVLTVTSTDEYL

G250E Bcr-abl = target: T4, G250E Bcr-abl (Homo sapiens, UniProt P00519, G250E); test: Proliferation of Ba/F3 cells expressing mutant Bcr-abl G250E; format: cell-based
T4 construct: expressed in transfected cells; host or cells: Ba/F3; the other entry of the earlier key: BCR (P11274, Breakpoint cluster region protein)
T4 sequence (P00519 229-512 G250E limits assumed): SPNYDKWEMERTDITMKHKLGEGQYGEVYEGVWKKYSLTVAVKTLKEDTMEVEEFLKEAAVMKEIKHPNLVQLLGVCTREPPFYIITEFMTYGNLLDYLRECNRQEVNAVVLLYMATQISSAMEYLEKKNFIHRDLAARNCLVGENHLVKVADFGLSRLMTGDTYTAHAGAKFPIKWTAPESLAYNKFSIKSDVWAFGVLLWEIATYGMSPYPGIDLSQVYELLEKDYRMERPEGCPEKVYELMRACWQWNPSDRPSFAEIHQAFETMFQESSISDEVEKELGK
Method: (§1) 32D-p210 cells are plated into 96 well TC plates at a density of 15,000 cells per well. 50 μL of two fold serial dilutions of the test compound (Cmax is 40 μM) are added to each well (STI571 is included as a positive control). After incubating the cells for 48 hours at 37° C., 5% CO2, 15 μL of MTT (Promega) is added to each well and the cells are incubated for an additional 5 hours. The optical density at 570 nm is quantified spectrophotometrically and IC50 values, the concentration of compound required for 50% inhibition, determined from a dose response curve.
(§2) Compounds of the invention are tested for their antiproliferative effect on Ba/F3 cells expressing either wild type or the mutant forms of BCR-Abl (G250E, E255V, T3151, F317L, M351T) that confers resistance or diminished sensitivity to STI571. The antiproliferative effect of these compounds on the mutant-BCR-Abl expressing cells and on the non transformed cells were tested at 10, 3.3, 1.1 and 0.37 μM as described above (in media lacking IL3). The IC50 values of the compounds lacking toxicity on the untransformed cells were determined from the dose response curves obtained as describe above.

wild type Bcr-abl = target: T5, wild type Bcr-abl (Homo sapiens, UniProt P00519); test: Proliferation of Ba/F3 cells expressing wild type Bcr-abl; format: cell-based
T5 construct: expressed in transfected cells; host or cells: Ba/F3; the other entry of the earlier key: BCR (P11274, Breakpoint cluster region protein)
Method: as §1, §2

M351T Bcr-abl = target: T6, M351T Bcr-abl (Homo sapiens, UniProt P00519, M351T); test: Proliferation of Ba/F3 cells expressing mutant Bcr-abl M351T; format: cell-based
T6 construct: expressed in transfected cells; host or cells: Ba/F3; the other entry of the earlier key: BCR (P11274, Breakpoint cluster region protein)
T6 sequence (P00519 242-493 M351T limits assumed): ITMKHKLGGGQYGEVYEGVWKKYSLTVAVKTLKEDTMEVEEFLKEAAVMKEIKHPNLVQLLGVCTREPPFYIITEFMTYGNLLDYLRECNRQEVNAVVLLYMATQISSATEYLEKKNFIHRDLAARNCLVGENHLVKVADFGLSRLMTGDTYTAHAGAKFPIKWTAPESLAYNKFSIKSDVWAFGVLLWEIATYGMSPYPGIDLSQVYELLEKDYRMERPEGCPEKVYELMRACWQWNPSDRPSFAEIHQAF
Method: as §1, §2

E255V Bcr-abl = target: T7, E255V Bcr-abl (Homo sapiens, UniProt P00519, E255V); test: Proliferation of Ba/F3 cells expressing mutant Bcr-abl E255V; format: cell-based
T7 construct: expressed in transfected cells; host or cells: Ba/F3; the other entry of the earlier key: BCR (P11274, Breakpoint cluster region protein)
Method: as §1, §2

F317L Bcr-abl = target: T8, F317L Bcr-abl (Homo sapiens, UniProt P00519, F317L); test: Proliferation of Ba/F3 cells expressing mutant Bcr-abl F317L; format: cell-based
T8 construct: expressed in transfected cells; host or cells: Ba/F3; the other entry of the earlier key: BCR (P11274, Breakpoint cluster region protein)
Method: as §1, §2

GI50 (FLT3) [nM] | IC50 (FGFR3 [1]) [nM] | GI50 (PDGFRβ) [nM] | GI50 (FGFR3 [2]) [nM] | IC50 (G250E Bcr-abl) [nM] | IC50 (wild type Bcr-abl) [nM] | IC50 (M351T Bcr-abl) [nM] | IC50 (E255V Bcr-abl) [nM] | IC50 (F317L Bcr-abl) [nM] | Structure (SMILES)
149 | 130 | 2 | 34 | – | – | – | – | – | CCN1CCN(Cc2ccc(C(=O)Nc3ccc(C)c(Nc4nccn4-c4cc(NC5CC5)ncn4)c3)cc2C(F)(F)F)CC1 [Compound 25, N-{3-[1-(6-Cyclopropylamino-pyrimidin-4-yl)-1H-imidazol-2-ylamino]-4-methyl-phenyl}-4-(4-ethyl-piperazin-1-ylmethyl)-3-trifluoromethyl-benzamide]
89 | 65 | 2 | 37 | – | – | – | – | – | Cc1ccc(NC(=O)c2ccc(CN3CCN(C)CC3)c(C(F)(F)F)c2)cc1Nc1nccn1-c1cc(NC2CC2)ncn1 [Compound 26, N-{3-[1-(6-Cyclopropylamino-pyrimidin-4-yl)-1H-imidazol-2-ylamino]-4-methyl-phenyl}-4-(4-methyl-piperazin-1-ylmethyl)-3-trifluoromethyl-benzamide]
– | – | – | – | 20 | < 0.5 | < 0.5 | 36 | < 0.5 | Cc1cn(-c2cc(C(=O)Nc3ccc(C)c(Nc4nccn4-c4cc(NC5CC5)ncn4)c3)cc(C(F)(F)F)c2)cn1 [Compound 27, N-{3-[1-(6-cyclopropylamino-pyrimidin-4-yl)-1H-imidazol-2-ylamino]-4-methyl-phenyl}-3-(4-methyl-imidazol-1-yl)-5-trifluoromethyl-benzamide]
